What was measured:
HLA-A*24:02 [1] = biological target: T1, HLA-A*24:02 (Homo sapiens, UniProt P04439, D101N/D140Y/D185E/E176V/E190D/F33S/G103R/G107R/I119L/I121M/I306V/K335N/L105A/L180Q/L300P/N151K/N90K/Q86E/Q94H/R106L/R138H/R89G/T104I/T345S/V100E/W191G/Y123F); assay: Peptide stability assay on WT HLA-A*24:02 (urea denaturation, W6/32 ELISA); type: binding; conditions: biotinylated A*24:02 refolded with excess peptide, incubated with 0, 2, 4 or 6 M urea, relative to reference peptide TYTQDFNKF (stability index 100%), result in words
Text: (§1) All HLA-A*02:01- and A*24:02-restricted peptides used in the study were purchased from Genscript at purity of > 80% with quality control by reverse-phase HPLC and mass spectrometry (SC1208). Recombinant HLA-A*02:01 and HLA-A*24:02 molecules were made and re-folded as described elsewhere ([83]). Conformation-dependent W6/32 antibodies used in these assays were produced in vitro from hybridoma cell lines (Integra, Chur, Switzerland). All A*02:01 and A*24:02 binding assays were done as described previously ([83]). In brief, streptavidin donor beads (PerkinElmer, 6760002) and acceptor beads (PerkinElmer, 6762001) conjugated to W6/32 were incubated with A*02:01 or A*24:02 that had been preincubated with varying peptide concentrations. Plates were read by PerkinElmer EnVision and data was analyzed using GraphPad Prism. Peptide stability assays were performed as described previously ([84]). In brief, biotinylated A*02:01 and A*24:02 molecules were refolded with excess peptide then incubated with 0, 2, 4, or 6 M urea. Nondenatured peptides were detected by W6/32 staining using ELISA as described previously ([85]). Stability was calculated as a percentage relative to a reference known binder peptide with an assigned stability index of 100%. […] was used as the reference peptide for A*02:01 and TYTQDFNKF was used as the reference peptide for A*24:02 in both the binding and stability assays.

HLA-A*24:02 [2] = biological target: T1, HLA-A*24:02; assay: Peptide binding assay on WT HLA-A*24:02 (W6/32 donor/acceptor bead assay); conditions: recombinant HLA-A*24:02 preincubated with varying peptide concentrations; streptavidin donor beads and W6/32-conjugated acceptor beads; EnVision read-out; reference peptide TYTQDFNKF; result in words
Text: as §1

Sequence	HLA-A*24:02/peptide complex stability (HLA-A*24:02 [1])	peptide binding to WT A*24:02 (HLA-A*24:02 [2])
KFKDNVILL [p1 lysine-substituted …]	increased	
QFKDNVILL [native A*24:02-restricted peptide with subdominant anchors F2 and LΩ]		relatively poor binding
VYGFVRACL		strong-binding
TFSDEAVHF		weak-binding

— PMC9391200, “Charge-based interactions through peptide position 4 drive diversity of antigen presentation by human leukocyte antigen class I molecules” (PNAS Nexus, 2022)
